From patent US10597390B2, “Indoles for use in influenza virus infection” (Janssen Sciences Ireland UC, priority 2014, dated 2020)

Test system: influenza virus A/Taiwan/1/86 (H1N1)
Test: organism not typed
Type: cell-based
Conditions: MDCK, 72 h, CPE in MDCK cells, three days post-virus exposure, ATPlite

SMILES	IC50 [nM]
Cc1cccnc1C(=O)N[C@@H]1CCC[C@H](Nc2nc(-c3c[nH]c4c(F)cc(F)cc34)ncc2F)C1 [Compound 101]	10
O=C(N[C@@H]1CCC[C@H](Nc2nc(-c3c[nH]c4c(F)cc(F)cc34)ncc2F)C1)c1ncccc1O [Compound 102]	10
Cc1cnc(C(=O)N[C@@H]2CCC[C@H](Nc3nc(-c4c[nH]c5c(F)cc(F)cc45)ncc3F)C2)cn1 [Compound 103]	49
O=C(N[C@@H]1CCC[C@H](Nc2nc(-c3c[nH]c4c(F)cc(F)cc34)ncc2F)C1)c1cccc(O)n1 [Compound 104]	2
COc1ccnc(C(=O)N[C@@H]2CCC[C@H](Nc3nc(-c4c[nH]c5c(F)cc(F)cc45)ncc3F)C2)c1 [Compound 105]	2
Nc1cccc(C(=O)N[C@@H]2CCC[C@H](Nc3nc(-c4c[nH]c5c(F)cc(F)cc45)ncc3F)C2)n1 [Compound 106]	5
O=C(N[C@@H]1CCC[C@H](Nc2nc(-c3c[nH]c4c(F)cc(F)cc34)ncc2F)C1)c1cnccn1 [Compound 107]	45
O=C(N[C@@H]1CCC[C@H](Nc2nc(-c3c[nH]c4c(F)cc(F)cc34)ncc2F)C1)c1ncccn1 [Compound 108]	6
O=C(N[C@@H]1CCC[C@H](Nc2nc(-c3c[nH]c4c(F)cc(F)cc34)ncc2F)C1)c1nccs1 [Compound 109]	2
Cc1ccnc(C(=O)N[C@@H]2CCC[C@H](Nc3nc(-c4c[nH]c5c(F)cc(F)cc45)ncc3F)C2)c1 [Compound 110]	3
O=C(N[C@@H]1CCC[C@H](Nc2nc(-c3c[nH]c4c(F)cc(F)cc34)ncc2F)C1)c1c[nH]nn1 [Compound 111]	0.6
Cc1cc(C(=O)N[C@@H]2CCC[C@H](Nc3nc(-c4c[nH]c5c(F)cc(F)cc45)ncc3F)C2)n[nH]1 [Compound 112]	3
Cc1ncn(C)c1C(=O)N[C@@H]1CCC[C@H](Nc2nc(-c3c[nH]c4c(F)cc(F)cc34)ncc2F)C1 [Compound 113]	39
O=C(N[C@@H]1CCC[C@H](Nc2nc(-c3c[nH]c4c(F)cc(F)cc34)ncc2F)C1)c1ncn[nH]1 [Compound 114]	430
CCn1nccc1C(=O)N[C@@H]1CCC[C@H](Nc2nc(-c3c[nH]c4c(F)cc(F)cc34)ncc2F)C1 [Compound 115]	380
Cc1cc(C(=O)N[C@@H]2CCC[C@H](Nc3nc(-c4c[nH]c5c(F)cc(F)cc45)ncc3F)C2)n(C)n1 [Compound 116]	12
Cc1c(C(=O)N[C@@H]2CCC[C@H](Nc3nc(-c4c[nH]c5c(F)cc(F)cc45)ncc3F)C2)nnn1C [Compound 117]	11
Cc1nc(C(=O)N[C@@H]2CCC[C@H](Nc3nc(-c4c[nH]c5c(F)cc(F)cc45)ncc3F)C2)no1 [Compound 118]	43
Cn1nncc1C(=O)N[C@@H]1CCC[C@H](Nc2nc(-c3c[nH]c4c(F)cc(F)cc34)ncc2F)C1 [Compound 119]	5
Cn1cc(C(=O)N[C@@H]2CCC[C@H](Nc3nc(-c4c[nH]c5c(F)cc(F)cc45)ncc3F)C2)cn1 [Compound 120]	3
CN(C)c1ccnc(C(=O)N[C@@H]2CCC[C@H](Nc3nc(-c4c[nH]c5c(F)cc(F)cc45)ncc3F)C2)c1 [Compound 121]	6
Cn1nccc1C(=O)N[C@@H]1CCC[C@H](Nc2nc(-c3c[nH]c4c(F)cc(F)cc34)ncc2F)C1 [Compound 122]	2
Nc1nccc(C(=O)N[C@@H]2CCC[C@H](Nc3nc(-c4c[nH]c5c(F)cc(F)cc45)ncc3F)C2)n1 [Compound 123]	11

Test system: not given
Test: not given
Conditions: not given

SMILES	melting point [°C]
Cc1cccnc1C(=O)N[C@@H]1CCC[C@H](Nc2nc(-c3c[nH]c4c(F)cc(F)cc34)ncc2F)C1 [Compound 101]	236
O=C(N[C@@H]1CCC[C@H](Nc2nc(-c3c[nH]c4c(F)cc(F)cc34)ncc2F)C1)c1ncccc1O [Compound 102]	176
Cc1cnc(C(=O)N[C@@H]2CCC[C@H](Nc3nc(-c4c[nH]c5c(F)cc(F)cc45)ncc3F)C2)cn1 [Compound 103]	215
O=C(N[C@@H]1CCC[C@H](Nc2nc(-c3c[nH]c4c(F)cc(F)cc34)ncc2F)C1)c1cccc(O)n1 [Compound 104]	226.6
COc1ccnc(C(=O)N[C@@H]2CCC[C@H](Nc3nc(-c4c[nH]c5c(F)cc(F)cc45)ncc3F)C2)c1 [Compound 105]	233.8
Nc1cccc(C(=O)N[C@@H]2CCC[C@H](Nc3nc(-c4c[nH]c5c(F)cc(F)cc45)ncc3F)C2)n1 [Compound 106]	190
O=C(N[C@@H]1CCC[C@H](Nc2nc(-c3c[nH]c4c(F)cc(F)cc34)ncc2F)C1)c1cnccn1 [Compound 107]	269
O=C(N[C@@H]1CCC[C@H](Nc2nc(-c3c[nH]c4c(F)cc(F)cc34)ncc2F)C1)c1ncccn1 [Compound 108]	> 300
O=C(N[C@@H]1CCC[C@H](Nc2nc(-c3c[nH]c4c(F)cc(F)cc34)ncc2F)C1)c1nccs1 [Compound 109]	277
Cc1ccnc(C(=O)N[C@@H]2CCC[C@H](Nc3nc(-c4c[nH]c5c(F)cc(F)cc45)ncc3F)C2)c1 [Compound 110]	255
O=C(N[C@@H]1CCC[C@H](Nc2nc(-c3c[nH]c4c(F)cc(F)cc34)ncc2F)C1)c1c[nH]nn1 [Compound 111]	265
Cc1cc(C(=O)N[C@@H]2CCC[C@H](Nc3nc(-c4c[nH]c5c(F)cc(F)cc45)ncc3F)C2)n[nH]1 [Compound 112]	283
Cc1ncn(C)c1C(=O)N[C@@H]1CCC[C@H](Nc2nc(-c3c[nH]c4c(F)cc(F)cc34)ncc2F)C1 [Compound 113]	> 300
O=C(N[C@@H]1CCC[C@H](Nc2nc(-c3c[nH]c4c(F)cc(F)cc34)ncc2F)C1)c1ncn[nH]1 [Compound 114]	289.8
CCn1nccc1C(=O)N[C@@H]1CCC[C@H](Nc2nc(-c3c[nH]c4c(F)cc(F)cc34)ncc2F)C1 [Compound 115]	266.8
Cc1cc(C(=O)N[C@@H]2CCC[C@H](Nc3nc(-c4c[nH]c5c(F)cc(F)cc45)ncc3F)C2)n(C)n1 [Compound 116]	279
Cc1c(C(=O)N[C@@H]2CCC[C@H](Nc3nc(-c4c[nH]c5c(F)cc(F)cc45)ncc3F)C2)nnn1C [Compound 117]	202
Cc1nc(C(=O)N[C@@H]2CCC[C@H](Nc3nc(-c4c[nH]c5c(F)cc(F)cc45)ncc3F)C2)no1 [Compound 118]	233
Cn1nncc1C(=O)N[C@@H]1CCC[C@H](Nc2nc(-c3c[nH]c4c(F)cc(F)cc34)ncc2F)C1 [Compound 119]	285
Cn1cc(C(=O)N[C@@H]2CCC[C@H](Nc3nc(-c4c[nH]c5c(F)cc(F)cc45)ncc3F)C2)cn1 [Compound 120]	> 300
CN(C)c1ccnc(C(=O)N[C@@H]2CCC[C@H](Nc3nc(-c4c[nH]c5c(F)cc(F)cc45)ncc3F)C2)c1 [Compound 121]	282.8
Cn1nccc1C(=O)N[C@@H]1CCC[C@H](Nc2nc(-c3c[nH]c4c(F)cc(F)cc34)ncc2F)C1 [Compound 122]	> 300
Nc1nccc(C(=O)N[C@@H]2CCC[C@H](Nc3nc(-c4c[nH]c5c(F)cc(F)cc45)ncc3F)C2)n1 [Compound 123]	235

Test system: not listed separately
Test: in vitro
Conditions: dog, TOX MDCK CC50

SMILES	CC50 at 3 days [nM]
Cc1cccnc1C(=O)N[C@@H]1CCC[C@H](Nc2nc(-c3c[nH]c4c(F)cc(F)cc34)ncc2F)C1 [Compound 101]	> 20700
O=C(N[C@@H]1CCC[C@H](Nc2nc(-c3c[nH]c4c(F)cc(F)cc34)ncc2F)C1)c1ncccc1O [Compound 102]	10100
Cc1cnc(C(=O)N[C@@H]2CCC[C@H](Nc3nc(-c4c[nH]c5c(F)cc(F)cc45)ncc3F)C2)cn1 [Compound 103]	6600
O=C(N[C@@H]1CCC[C@H](Nc2nc(-c3c[nH]c4c(F)cc(F)cc34)ncc2F)C1)c1cccc(O)n1 [Compound 104]	> 25000
COc1ccnc(C(=O)N[C@@H]2CCC[C@H](Nc3nc(-c4c[nH]c5c(F)cc(F)cc45)ncc3F)C2)c1 [Compound 105]	5600
Nc1cccc(C(=O)N[C@@H]2CCC[C@H](Nc3nc(-c4c[nH]c5c(F)cc(F)cc45)ncc3F)C2)n1 [Compound 106]	10300
O=C(N[C@@H]1CCC[C@H](Nc2nc(-c3c[nH]c4c(F)cc(F)cc34)ncc2F)C1)c1cnccn1 [Compound 107]	> 25000
O=C(N[C@@H]1CCC[C@H](Nc2nc(-c3c[nH]c4c(F)cc(F)cc34)ncc2F)C1)c1ncccn1 [Compound 108]	> 24000
O=C(N[C@@H]1CCC[C@H](Nc2nc(-c3c[nH]c4c(F)cc(F)cc34)ncc2F)C1)c1nccs1 [Compound 109]	6100
Cc1ccnc(C(=O)N[C@@H]2CCC[C@H](Nc3nc(-c4c[nH]c5c(F)cc(F)cc45)ncc3F)C2)c1 [Compound 110]	9600
O=C(N[C@@H]1CCC[C@H](Nc2nc(-c3c[nH]c4c(F)cc(F)cc34)ncc2F)C1)c1c[nH]nn1 [Compound 111]	9000
Cc1cc(C(=O)N[C@@H]2CCC[C@H](Nc3nc(-c4c[nH]c5c(F)cc(F)cc45)ncc3F)C2)n[nH]1 [Compound 112]	18000
Cc1ncn(C)c1C(=O)N[C@@H]1CCC[C@H](Nc2nc(-c3c[nH]c4c(F)cc(F)cc34)ncc2F)C1 [Compound 113]	> 25000
O=C(N[C@@H]1CCC[C@H](Nc2nc(-c3c[nH]c4c(F)cc(F)cc34)ncc2F)C1)c1ncn[nH]1 [Compound 114]	> 25000
CCn1nccc1C(=O)N[C@@H]1CCC[C@H](Nc2nc(-c3c[nH]c4c(F)cc(F)cc34)ncc2F)C1 [Compound 115]	> 25000
Cc1cc(C(=O)N[C@@H]2CCC[C@H](Nc3nc(-c4c[nH]c5c(F)cc(F)cc45)ncc3F)C2)n(C)n1 [Compound 116]	5800
Cc1c(C(=O)N[C@@H]2CCC[C@H](Nc3nc(-c4c[nH]c5c(F)cc(F)cc45)ncc3F)C2)nnn1C [Compound 117]	8700
Cc1nc(C(=O)N[C@@H]2CCC[C@H](Nc3nc(-c4c[nH]c5c(F)cc(F)cc45)ncc3F)C2)no1 [Compound 118]	> 25000
Cn1nncc1C(=O)N[C@@H]1CCC[C@H](Nc2nc(-c3c[nH]c4c(F)cc(F)cc34)ncc2F)C1 [Compound 119]	> 50000
Cn1cc(C(=O)N[C@@H]2CCC[C@H](Nc3nc(-c4c[nH]c5c(F)cc(F)cc45)ncc3F)C2)cn1 [Compound 120]	> 25000
CN(C)c1ccnc(C(=O)N[C@@H]2CCC[C@H](Nc3nc(-c4c[nH]c5c(F)cc(F)cc45)ncc3F)C2)c1 [Compound 121]	15700
Cn1nccc1C(=O)N[C@@H]1CCC[C@H](Nc2nc(-c3c[nH]c4c(F)cc(F)cc34)ncc2F)C1 [Compound 122]	> 25000
Nc1nccc(C(=O)N[C@@H]2CCC[C@H](Nc3nc(-c4c[nH]c5c(F)cc(F)cc45)ncc3F)C2)n1 [Compound 123]	> 25000
